Reference: patent publication US20250000847A1, “TREATMENT OF NEURODEGENERATIVE DISEASES WITH HDAC INHIBITORS” (CASE WESTERN RESERVE UNIVERSITY, priority 2021, published 2025)

Key:
[1] = system: GBP2+ reactive astrocytes; experiment: Primary high-throughput screen, formation of GBP2+ damaging reactive astrocytes; type: cell-based, mouse; conditions: 2 μM, TNFα, IL-1α, C1q, 24 hours
Protocol: Specifically, resting astrocytes were first thawed and plated onto 384-well plates at a density of about 500 cells/mm^2. A Perkin Elmer Janus G3 Varispan Automated Workstation was then used to treat cells with candidate small-molecules from a library of 3115 bioactive small-molecules, with one type of small molecule per well, at a concentration of about 2 μM in 384-well plates, followed one hour later by exposing the pre-treated astrocytes with such reactive astrocyte driving factors as IL-1α (3 ng/mL, Sigma #I3901), C1q (400 ng/mL, MyBioSource #MBS143105), and TNFα (30 ng/mL, R&D Systems #210-TA-020). […]
The cells were then imaged using the PerkinElmer Operetta CLS High-Content Analysis System. Images were analyzed using automated PerkinElmer Columbus Image Analysis Software.
Hits were then determined as those compounds that decreased the number of GBP2^+ reactive astrocytes by greater than 80% compared to reactive astrocytes plus DMSO vehicle control wells. […]
For screening, all liquid handling was performed using a BioTek EL406 Washer Dispenser. […] Images were analyzed using automated PerkinElmer Columbus Image Analysis Software. For analysis, toxic chemicals were first removed; a chemical was considered toxic if it decreased the counted number of live cells in the well by greater than 30% compared to reactive astrocytes plus DMSO vehicle control wells. […]

[2] = system: MHC Class I (H-2Kb) bound to OVA257-264 on reactive astrocytes; experiment: OVA257-264 peptide antigen cross presentation assay; type: cell-based, mouse
Protocol: To test whether HDAC inhibitors block the ability of reactive astrocytes to cross present exogenous antigen, cells were plated down in 96-well plates at a density of about 500 cells/mm^2. Cells were then treated with HDAC inhibitors for 1 hr prior to the addition of reactive astrocyte driving factors as the concentrations stated above. Cells were incubated for 24 hrs, after which, media was washed out and replaced with media containing the peptide fragment ovalbumin 257-264 (OVA257-264). Cells were then incubated overnight, and then stained for 2 hrs at 37° C. with APC-conjugated antibody against MHC Class I (H-2Kb) bound to OVA257-264, then visualized. The percent of H-2Kb positive cells as a percent of total live cells was determined (FIG. 3).
After 24 hours of treatment, these cells were cultured in the presence of the OVA257264 Peptide (GenScript RP10611 or Sigma S7951). After 12 hours, the cells were live-stained for two hours using a conjugated antibody targeted against an OVA257-264 peptide antigen. The cells were then fixed and imaged using the PerkinElmer Operetta CLS High-Content Analysis System.

[3] = system: CCL5; experiment: CCL5 secretion by reactive astrocytes (ELISA); type: cell-based, mouse; conditions: for reduction of CCL5 secretion: compared to vehicle control
Protocol: Astrocytes were plated and treated exactly as described for the antigen cross presentation assay. However, after 24 hrs of incubation with either reactive astrocyte driving factors alone or with HDAC inhibitor treatment, conditioned media from the cells was collected and assayed for CCL5 using a commercially available colorimetric ELISA kit (RnD Cat #: DY478-05). Data was then fit to a standard four parameter logistic (4PL) curve and presented as pg/mL/cell, normalized to reactive astrocytes plus DMSO vehicle (FIG. 4).
Media was collected from mouse P2 primary astrocytes that had been cultured for 24 hrs in the presence of cytokines with and without HDAC3 inhibitors and compared to media from astrocytes not treated with cytokines. The concentration of CCL5, a cytokine secreted by reactive astrocytes, was measured in each of the respective media conditions based on the direct adsorption of CCL5 to a pre-coated capture antibody on the ELISA assay plate. The ELISA sandwich assay was performed according to the manufacturer's instructions (DY478-05, R&D Systems). Relative CCL5 concentration were measured based on absorbance measured by a plate reader.

[4] = system: genes associated with damaging and beneficial reactive astrocytes; experiment: Bulk RNAseq of reactive astrocytes; type: cell-based, mouse
Text: Total RNA was extracted from resting and reactive astrocytes using the same procedure as described for qPCR and sent to Novogene for mRNA Sequencing.
For gene expression analysis, reads were mapped to the mm10 genome using kallisto 0.46.1 (Bray et al., Nat Biotechnol 34, 525-527, doi:10.1038/nbt.3519 (2016)). Transcripts were summarized to the gene level with tximport (Soneson et al., F1OORes 4, 1521, doi:10.12688/fl000research.7563.2 (2015). Normalized expression and differentiation gene expression was then generated using DESEQ2 (Love et al., Genome Biol 15, 550, doi:10.1186/s13059-014-0550-8 (2014)).

[5] = system: RelA/P65; experiment: Nuclear RelA/P65 in reactive astrocytes; type: cell-based, mouse
Protocol: For immunocytochemistry, cells were fixed with ice-cold 4% PFA for 15 minutes at room temperature, washed three times with PBS, blocked and permeabilized with 10% donkey serum and 0.1% Triton X-100 in PBS for 1 hr, and then stained with primary overnight followed by three washes with PBS, and then 1 hr incubation with Alexaflour secondary antibodies and DAPI. Stained cells were imaged using the PerkinElmer Operetta CLS High-Content Analysis System and analyzed using automated scripts in PerkinElmer Columbus Image Analysis software. Primary antibodies used were GBP2 (ProteinTech, 11854-1-AP), vimentin (BioLegend, 919101), RelA/P65 (Cell Signaling Tech, 6956), MBP (Abeam, AB7349).

[6] = system: very long chain fatty acids (VLCFA); experiment: Very long chain fatty acids produced by reactive astrocytes; type: cell-based; conditions: compared to cells treated with DMSO

In the case of Nc1cc(F)ccc1NC(=O)/C=C/c1cnn(C/C=C/c2ccccc2)c1 [RGFP966], the “inhibition of the formation of proinflammatory toxic (reactive) astrocytes” value [1] is reported as “robustly inhibit”, the “ability of reactive astrocytes to cross present antigen on MHC Class I” value ([2]; FIG. 3) is reported as “decrease” and the “inhibition of antigen cross-presentation by MHC Class I” value ([2]; at either 2.5 or 5.0 μM) is reported as “completely inhibited”. The “reduction of CCL5 secretion” value ([3]; 2.5 μM) was “about 70%”, the “reduction of CCL5 secretion” value ([3]; 5.0 μM) was “more than 80%” and the “secretion of CCL5 by reactive astrocytes” value ([3]; FIG. 4) was “significantly decrease”. For the same compound, the “expression of genes associated with beneficial reactive astrocytes (BRA)” value [4] was “increasing expression”, the “expression of genes associated with damaging reactive astrocytes (DRA)” value [4] was “decreased expression” and the “nuclear RelA/P65” value [5] was “decreases”. The “levels of toxic very long chain fatty acids (VLCFA)” value [6] was “decreased levels”.
